The values below come from patent US20170215422A1, “NOVEL CYCLIC DEPSIPEPTIDE DERIVATIVES AND HARMFUL ORGANISM CONTROL AGENTS COMPRISING THE SAME” (priority 2012, published 2017).

Common to all, as to format: in vivo
The test system of one test is Musca domestica. The experiment in a line: Control effect against Musca domestica adults (sucrose solution on swab). The note with it: 50 ppm in 40% sucrose solution, 4 days. As to the method: A chemical solution of the compound according to the present invention that had been adjusted with a 40% sucrose solution to a concentration of 50 ppm was adsorbed on a swab, and the swab was placed in a vial. Two adults of Musca domestica grown in a room were released, followed by standing in a room at a room temperature of 25° C. […] When two insects were in a dead or anguished state, the test compound was determined to be effective.

Test [1] relates to Haemaphysalis longicornis. Put plainly: Tickicidal effect against Haemaphysalis longicornis (capsule on mouse). The note with it: treatment of 9.5 μg on mouse body surface; nymphal ticks; 5 days. As to the method: A capsule having a diameter of 2 cm and a height of 2 cm was bonded to a surface of a back surface of a mouse. A compound of the present invention (9.5 μg) was dissolved in ethanol, and the solution was dropped on the surface of the body of the […] within the capsule. After thorough drying, ten nymphal ticks of Haemaphysalis longicornis were released, and the upper portion of the capsule was lidded for hermetical closing. The mouse was grown in a cage at 25° C. for 12 hr under light phase conditions. Five days after the release, the capsule was removed, and survival or death of the nymphal ticks and the number of blood sucked individuals were measured, and the death/anguish rate was calculated by the following equation.
Death/anguish rate (%)={number of dead/anguished insects/(number of survived ticks+number of dead/anguished insects)}×100

In test [2] the test system is larvae of Musca domestica. The experiment in a line: Control effect against larvae of Musca domestica (treated feed). Conditions: treatment of 12.5 ppm in feed; 5 days. The procedure:
A compound of the present invention was applied to a very small amount of DMSO, followed by dissolution in deionized water to prepare a chemical solution. The chemical solution (2 mil) adjusted to a concentration of 12.5 ppm was added to and well mixed with 2 g of a powder prepared by mixing wheat bran, MF feed (ORIENTAL YEAST Co., Ltd.), and dry yeast at a wheat bran:MF feed:dry yeast of 25:5:1 to prepare a feed for larvae of Musca domestica. The feed containing the compound was lightly packed in a 3-ml vial, and eight eggs were released. The mouth of the vial was closed with a meshed lid, and the vial was left to stand at 25° C. The number of larvae was counted five days after the chemical treatment, and the death rate was calculated by the following equation. The test was carried out by replicating each treatment twice.
Death rate (%)={number of dead larvae/(number of survived larvae+number of dead larvae)}×100

The test system of test [3] is egg of Tetranychus uruticae (susceptible strain). The experiment in a line: Ovicidal effect against egg of Tetranychus uruticae (susceptible strain). The note with it: foliage treatment of 10 ppm; control agent. The procedure: <Miticidal Effect Against Two-Spotted Spider Mite (Susceptible Strain)>
(§1) A leaf disk having a diameter of 2.0 cm was cut out from a kidney bean grown in a pot. The leaf disk was inoculated with seven female adult of Tetranychus uruticae, followed by laying in a thermostatic chamber (25° C.). After the elapse of 24 hr, female adults were removed from the leaf disk. The foliage was treated with a chemical solution adjusted to a 50% aqueous acetone solution (0.05% Tween 20 added) containing a compound of the present invention at a predetermined concentration. The foliage was then air-dried and was allowed to stand in a thermostatic chamber (light period 16 hr-dark period 8 hr) (25° C.). Seven days after the chemical solution treatment, the number of remaining eggs and the number of dead mites were counted, and the ovicidal/miticidal rate was calculated by the following equation.
(§2) Ovicidal/miticidal rate (%)={(number of remaining eggs+number of dead mites)/(number of remaining eggs+number of dead mites+number of survived insects)}×100

Test [4] deals with egg of drug-resistant Tetranychus uruticae. The experiment in a line: Ovicidal effect against egg of drug-resistant Tetranychus uruticae. The note with it: foliage treatment of 10 ppm; eggs, drug-resistant strain; 7 days. The procedure: <Miticidal Effect Against Two-Spotted Spider Mite (Drug-Resistant Strain)>
as §1, with “adult of drug-resistant Tetranychus uruticae,” for “adult of Tetranychus uruticae,”
as §2

With `CCCCC[C@@H]1OC(=O)[C@H](C)N(C)C(=O)[C@@H](CCCCC)OC(=O)[C@H](C)N(C)C(=O)[C@@H](CCCCC)OC(=O)[C@H](CC(C)C)N(C)C(=O)[C@@H](CCCCC)OC(=O)[C@H](C)N(C)C1=O` [Compound 27], the “insecticidal activity (two adults dead or anguished = effective)” value in the test on Musca domestica is on record as “two insects were brought to a dead or anguished state”. Also, the death/anguish rate result in test [1] is reported as “not less than 70%”. As for `CCCCCC1OC(=O)C(CC(C)C)N(C)C(=O)C(CCCCC)OC(=O)C(CC(C)C)N(C)C(=O)C(CCCCC)OC(=O)C(CCC)N(C)C(=O)C(CCCCC)OC(=O)CN(C)C1=O` (centres unmarked) [Compound 57], the death rate in test [2] was found to be 100%. Consider `CCCCCCCCCCCCC1=C(OC(C)=O)C(=O)c2ccccc2C1=O` [acequinocyl, reference compound], for which, in test [3], the “ovicial/miticidal rate against egg of Tetranychus uruticae (susceptible strain)” value amounted to 71%. In addition, in test [4], the ovicidal/miticidal rate stood at 11%.
